Test results reported in US11534457B2, “Use of dextran sulfate” (priority 2017, dated 2022).

Test system: Human umbilical vein endothelial cells (HUVECs)
Experiment: Gene expression array and pathway analysis, HUVECs
Assay type: cell-based
Experimental: For each cell line, n=8×25 cm^2 culture flasks were set up. Two flasks were harvested for each cell type on the day of treatment (24 hours after seeding). This represents the Day0 time point. From the remaining flasks, three flasks were treated with Control Medium and three were treated with Culture Medium (CM) containing LMW-DS to give a final concentration of 0.01 mg/ml. Cells from the treated flasks were collected after 48 hours. Therefore the collected data represent (a) untreated cells (Day0 Controls and Day2 Controls) and (b) cells treated with LMW-DS for 48 hours (Day2 LMW-DS treated).
25 cm^2 flasks were coated by adding 2 ml per flask of a solution of 50 μg/ml poly-d-lysine in Hank's balanced salt solution (HBSS) and incubating overnight at 37° C. in the dark. Flasks were washed with cell culture water and air-dried for 30 min in the dark. Flasks were coated by adding 1 ml per flask of a solution of 25 μg/ml laminin in phosphate-buffered saline (PBS) and incubating for 2 hour at 37° C. in the dark. The laminin flasks were washed with PBS three times before plating cells.
Medium 200+Large Vessel Endothelial Supplement (M200+LVES) additive (1:50) was prepared and pre-warmed to 37° C. Cells were thawed in a 37° C. water bath for no longer than 2 min and gently transferred into a 50 ml tube containing 20 ml Dulbecco's Modified Eagle Medium, Nutrient Mixture F-12 (DMEM-F12). The cell suspension was mixed by inverting the tube carefully twice. Cells were spun at 400×g for 10 minutes. Supernatant removed and cells were resuspended in 10 ml of culture media (M200+LVES additive).
Cells were counted with the Cellometer. 1,000,000 cells/flask were seeded in 25 cm^2 flasks (n=8) and medium was topped up to a total of 5 ml per flask. Cells were incubated at 37° C. with 5% CO2. Cells were allowed to settle for 24 hours before LMW-DS treatment.
LMW-DS was provided at a stock concentration of 20 mg/ml and was kept in a temperature monitored refrigerator at 4° C. A fresh […]LMW-DS stock (1.0 mg/ml) was prepared in sterile DMEM-F12. The concentrated drug stock was sterile filtered and added to the respective culture media (19.6 ml CM and 0.4 ml LMW-DS stock solution). The Control was made using 19.6 ml CM and 0.4 ml of DMEM-F12. LMW-DS and CM were added to the respective flasks (5 ml each) to reach the 0.01 mg/ml concentration of LMW-DS in each dish with a total of 10 ml CM each.
CM was aspirated into a clean and labelled 15 ml Falcon tube. The flasks (without culture medium) were placed into the −80° C. freezer for 30 minutes. The CM in the Falcon tubes were spun at 3000×g for 5 minutes. Supernatant was removed and the small pellet was re-suspended in 2.5 ml Trizol:Water (4:1) solution at room temperature (RT, […]).
Two aliquots of 1 ml lysate was removed from each sample and 200 μl of chloroform was added to each (0.2 ml of chloroform per 1 ml of TRIzol Reagent used during the cell lysis step) and the tube was shaken vigorously. Samples were stored at RT for 2-3 minutes and subsequently centrifuged at 12,000×g for 15 minutes at 4° C.
The expression data were downloaded into separate files for each cell line. The ‘Background corrected’ expression is the data from the “gProcessedSignal” of the arrays that is the result of the background signal extracted from the actual signal of the relevant probe. This is the most often used variable in array analysis. The background corrected signal was log 2 transformed for all samples for statistical analysis. To reduce the false discovery rate in the samples, the signals that were below ‘expression level’ were removed. The ‘below expression’ level was set at 5 for the log 2 transformed expression values.
Based on the expression pattern of the Control probes on each array it was decided to carry out Median Centering for all arrays before analysis to reduce the variability of the results. […]

**Q.** With “low molecular weight dextran sulfate [LMW-DS]” as the substance, how does the “aggregate effect on adhesion and angiogenesis (1 molecule, ADAM11)” value (0.01 mg/ml, 48 h) read?
**A.** Its value is “adhesion would not be affected but angiogenesis would be activated”.

**Q.** What about the “differential regulation of the 197 genes regulating cell attachment” value (0.01 mg/ml, 48 h) of the same substance?
**A.** Its value is “none are differentially regulated”.

**Q.** What about the “modulation of the effects of oxidative stress on mitochondria” value (0.01 mg/ml, 48 h) of the same substance?
**A.** Its value is “no significant modulation”.

**Q.** And the “number of genes differentially expressed, D0 control vs D2 LMW-DS treated” value (0.01 mg/ml, 48 h)?
**A.** The value was 1779 genes.

**Q.** And the “number of genes differentially expressed, D2 control vs D2 LMW-DS treated” value (0.01 mg/ml, 48 h)?
**A.** Its value is 76 genes.

**Q.** And the “number of genes: abolished nutrient effect / no effect” value (0.01 mg/ml, 48 h)?
**A.** Its value is 67.

**Q.** And the “number of genes: abolished nutrient effect / significant downregulation” value (0.01 mg/ml, 48 h)?
**A.** The value was 4.

**Q.** What about the “number of genes: abolished nutrient effect / significant upregulation” value (0.01 mg/ml, 48 h) of the same substance?
**A.** Its value is 11.

**Q.** And the “number of genes: abolished nutrient effect / total” value (0.01 mg/ml, 48 h)?
**A.** Its value is 82.

**Q.** And the “number of genes: enhanced response to nutrients / significant downregulation” value (0.01 mg/ml, 48 h)?
**A.** Its value is 120.

**Q.** What about the “number of genes: enhanced response to nutrients / significant upregulation” value (0.01 mg/ml, 48 h) of the same substance?
**A.** Its value is 229.

**Q.** And the “number of genes: enhanced response to nutrients / total” value (0.01 mg/ml, 48 h)?
**A.** Its value is 349.

**Q.** What about the “number of genes: not different from control / significant downregulation” value (0.01 mg/ml, 48 h) of the same substance?
**A.** Its value is 167.

**Q.** What about the “number of genes: not different from control / significant upregulation” value (0.01 mg/ml, 48 h) of the same substance?
**A.** Its value is 1326.

**Q.** And the “number of genes: not different from control / total” value (0.01 mg/ml, 48 h)?
**A.** The value was 1493.

**Q.** What about the “number of genes: total / no effect” value (0.01 mg/ml, 48 h) of the same substance?
**A.** The value was 67.

**Q.** And the “number of genes: total / significant downregulation” value (0.01 mg/ml, 48 h)?
**A.** The value was 291.

**Q.** What about the “number of genes: total / significant upregulation” value (0.01 mg/ml, 48 h) of the same substance?
**A.** The value was 1566.

**Q.** And the “number of genes: total / total” value (0.01 mg/ml, 48 h)?
**A.** Its value is 1924.

**Q.** What about the “upstream regulator HGF: activation z-score” value (D2 LMW-DS treatment) of the same substance?
**A.** Its value is 3.194.

**Q.** What about the “upstream regulator HGF: predicted activation state relative D2 control” value (D2 LMW-DS treatment) of the same substance?
**A.** Its value is “Activated relative to control”.

**Q.** And the “upstream regulator TGFβ1: activation z-score” value (D2 LMW-DS treatment)?
**A.** The value was 1.429.

**Q.** What about the “upstream regulator TGFβ1: predicted activation state relative D2 control” value (D2 LMW-DS treatment) of the same substance?
**A.** The value was “Activated relative to control”.

**Q.** And the “upstream regulator VEGF: activation z-score” value (D2 LMW-DS treatment)?
**A.** Its value is 3.432.

**Q.** What about the “upstream regulator VEGF: predicted activation state relative D2 control” value (D2 LMW-DS treatment) of the same substance?
**A.** Its value is “Activated relative to control”.
